Laboratory results from patent publication US20080280953A1, “Agents Used for the Treatment of Seeds” (Bayer Cropscience AG, priority 2004, published 2008).

These molecules were tested on green peach aphid (Myzus persicae) (assay: Myzus test (spray treatment), Chinese cabbage leaf sections). Conditions: 500 g/ha, after 5 days.
Format: in vivo
Method: (§1) To prepare a suitable active compound preparation 1 part by weight of the active compound is mixed with the given amount of solvent and emulsifier and the concentrate is diluted to the desired concentration with water containing emulsifier.
Chinese cabbage leaf sections (Brassica pekinensis) infested with all stages of the green peach aphid (Myzus persicae) are sprayed with an active compound preparation at the desired concentration.
After the desired time the activity in % is determined. Here 100% means that all aphids were killed; 0% means that no aphids were killed.

Structure (SMILES) | activity after 5 days [%]
O=C1C=C(NCc2ccc(Cl)nc2)CCC1 [Compound 1] | 100
CCCN(Cc1ccc(Cl)nc1)C1=CC(=O)CCC1 [Compound 4] | 100
C=CCN(Cc1ccc(Cl)nc1)C1=CC(=O)CCC1 [Compound 9] | 100
C#CCN(Cc1ccc(Cl)nc1)C1=CC(=O)CCC1 [Compound 10] | 100
Cn1c(NCc2ccc(Cl)nc2)cc(=O)n(C)c1=O [Compound 70] | 100
C#CCN(Cc1ccc(Cl)nc1)C1=CC(=O)OC1 [Compound 92] | 100
CC(=O)N(Cc1ccc(Cl)nc1)C1=CC(=O)OC1 [Compound 94] | 100
CON(Cc1ccc(Cl)nc1)C1=CC(=O)OC1 [Compound 98] | 100
CN(Cc1ccc(Br)nc1)C1=CC(=O)OC1 [Compound 121] | 100
O=C1C=C(N(Cc2ccc(F)nc2)C2CC2)CO1 [Compound 124] | 100
CN(Cc1ccc(C(F)(F)F)nc1)C1=CC(=O)OC1 [Compound 125] | 100
O=C1C=C(N(Cc2ccc(C(F)(F)F)nc2)C2CC2)CO1 [Compound 126] | 100
CN(Cc1cccnc1)C1=CC(=O)OC1 [Compound 147] | 100

Same assay, conditions: Myzus persicae, 120 h, after 5 d, read-out: Death rate in % after 5 d

Structure (SMILES) | pest or weed control at 500 g/ha [%]
CC1OC(=O)C=C1N(C)Cc1ccc(Cl)nc1 (stereo not drawn) | 100
CN(Cc1ccc(Cl)nc1)C1=CC(=O)CCC1 | 90
O=C1C=C(N(Cc2ccc(Cl)nc2)C2CC2)CC1 | 100
CN(Cc1ccc(Cl)nc1)C1=CC(=O)OC1 [drawing 472] | 100
CCN(Cc1ccc(Cl)nc1)C1=CC(=O)OC1 [drawing 473] | 90
CN(Cc1cnc(Cl)s1)C1=CC(=O)OC1 [drawing 474] | 100
O=C1C=C(NCc2ccc(Cl)nc2)CO1 [drawing 475] | 90
CN(Cc1ccc(Cl)nc1)C1=C(F)C(=O)OC1 [drawing 477] | 100
O=C1C=C(N(Cc2ccc(Cl)nc2)C2CC2)CO1 [drawing 478] | 100
C=CCN(Cc1ccc(Cl)nc1)C1=CC(=O)OC1 [drawing 479] | 100
CN(Cc1ccc(Cl)nc1)C1=CC(=O)CC1 [drawing 481] | 100
CN(Cc1ccc(Cl)nc1)C1=CC(=O)SC1 [drawing 483] | 80

These molecules were tested on larvae of the mustard leaf beetle (Phaedon cochleariae) (assay: Phaedon cochleariae test (spray treatment)). Conditions: 500 g/ha.
Format: in vivo
Method: [table] To prepare a suitable active compound preparation 1 part by weight of the active compound is mixed with the given amount of solvent and emulsifier and the concentrate is diluted to the desired concentration with water containing emulsifier. Chinese cabbage leaf sections (Brassica pekinensis) are sprayed with an active compound preparation at the desired concentration and after drying are infected with larvae of the mustard leaf beetle (Phaedon cochleariae). After the desired time the activity in % is determined.

Structure (SMILES) | Death rate in % after 7 d [%]
CN(Cc1ccc(Cl)nc1)C1=CC(=O)OC1 [drawing 484] | 100
CCN(Cc1ccc(Cl)nc1)C1=CC(=O)OC1 [drawing 485] | 100
O=C1C=C(N(Cc2ccc(Cl)nc2)C2CC2)CO1 [drawing 486] | 100
C=CCN(Cc1ccc(Cl)nc1)C1=CC(=O)OC1 [drawing 487] | 67

Each molecule was assayed on caterpillars of the fall army worm (Spodoptera frugiperda) (assay: Spodoptera frugiperda test (spray treatment)). Conditions: 500 g/ha; spray on maize leaf sections; after 7 d.
Format: in vivo
Method: as §1
Maize leaf sections (Zea mays) are sprayed with an active compound preparation at the desired concentration and after drying treated with caterpillars of the fall army worm (Spodoptera frugiperda).
After the desired time the activity in % is determined. Here 100% means that all caterpillars were killed; 0% means that no caterpillars were killed.

Structure (SMILES) | Death rate in % after 7 d [%]
CCN(Cc1ccc(Cl)nc1)C1=CC(=O)OC1 [Compound 85] | 100

Same assay, conditions: 500 g/ha; spray; after 7 days

Structure (SMILES) | activity after 7 days [%]
CN(Cc1ccc(Br)nc1)C1=CC(=O)OC1 [Compound 121] | 100

The molecules below were run on eggs of the cotton boll worm (Heliotis virescens) (assay: Heliothis virescens test (spray treatment)). Conditions: 500 g/ha, spray on soy bean leaves.
Format: in vivo
Method: as §1
Soy bean leaves (Glycine max.) are sprayed with an active compound preparation at the desired concentration and after drying were infected with eggs of the cotton boll worm (Heliotis virescens).
After the desired time the activity in % is determined. Here 100% means that all eggs were killed; 0% means that no eggs were killed.

Structure (SMILES) | Death rate in % after 7 d [%]
CCN(Cc1ccc(Cl)nc1)C1=CC(=O)OC1 [Compound 85] | 100
CN(Cc1cnc(Cl)s1)C1=CC(=O)OC1 [Compound 144] | 99

Each molecule was assayed on cotton aphid (Aphis gossypii) (assay: Aphis gossypii test, immersion of cotton leaves). Conditions: 100 g/ha (so in the source), cotton leaves immersed.
Format: in vivo
Method: as §1
Cotton plant leaves (Gossypium hirsutum) heavily infected with the cotton aphid (Aphis gossypii) are treated by immersing in the active compound preparation at the desired concentration. After the desired time the death rate in % is determined. Here 100% means that all aphids were killed; 0% means that no aphids were killed.

Structure (SMILES) | Death rate in % after 6 d [%]
CN(Cc1ccc(Cl)cn1)C1=CC(=O)CC1 | 95
CN(Cc1ccc(Cl)nc1)C1=CC(=O)OC1 [drawing 493] | 100
O=C1C=C(NCc2ccc(Cl)nc2)CO1 [drawing 494] | 98
C=CCN(Cc1ccc(Cl)nc1)C1=CC(=O)OC1 [drawing 495] | 95

The molecules below were run on eggs of the diamond back moth (Plutella xylostella) (assay: Plutella test, artificial diet). Conditions: 1000 g/ha (so in the source), on artificial diet.
Format: in vivo
Method: To prepare a suitable active compound preparation 1 part by weight active compound was mixed with the given amount of solvent and the concentrate was diluted to the desired concentration with methanol.
A given amount of active compound preparation at the desired concentration is pipetted onto a standardised amount of artificial diet. After the methanol has evaporated ca. 200-300 eggs of the diamond back moth (Plutella xylostella) are added to the diet.
After the desired time the death rate of the eggs and larvae, respectively, in % is determined. Here 100% means that all animals were killed; 0% means that no animals were killed.

Structure (SMILES) | Death rate in % after 7 d [%]
CN(Cc1ccc(Cl)nc1)C1=CC(=O)SC1 [Compound 112] | 100

The molecules below were run on green peach aphid (Myzus persicae) (assay: Myzus persicae test (hydroponic treatment)). Conditions: 20 g/ha (so in the source), pea plant, after 7 d.
Format: in vivo
Method: To prepare a suitable active compound preparation 1 part by weight of the active compound is mixed with the given amount of solvent and emulsifier and the concentrate is diluted to the desired concentration with water.
The active compound preparation is mixed with water. The concentration given refers to the amount of active compound per unit volume water (mg/l=ppm). The treated water is placed into a vessel with one pea plant (Pisum sativum). After the prescribed time infection with the green peach aphid (Myzus persicae) is carried out.
After the desired time the death rate in % is determined. Here 100% means that all aphids were killed; 0% means that no aphids were killed.

Structure (SMILES) | Death rate in % after 7 d [%]
C=CCN(Cc1ccc(Cl)nc1)C1=CC(=O)OC1 [Compound 91] | 100

Same assay, conditions: 20 ppm, pea plant, after 7 days

Structure (SMILES) | activity after 7 days [%]
CON(Cc1ccc(Cl)nc1)C1=CC(=O)OC1 [Compound 98] | 100
CN(Cc1ccc(Br)nc1)C1=CC(=O)OC1 [Compound 121] | 100
CN(Cc1ccc(C(F)(F)F)nc1)C1=CC(=O)OC1 [Compound 125] | 100

These molecules were tested on rice brown plant hopper (Nilaparvata lugens) (assay: Nilaparvata lugens test; hydroponic treatment (NILALU SYS)). Conditions: 500 g/ha.
Format: in vivo
Method: To prepare a suitable active compound preparation I part by weight of the active compound is mixed with the given amount of solvent and emulsifier and the concentrate is diluted to the desired concentration with water containing emulsifier.
The active compound preparation is pipetted into water. […] Infection is then carried out with rice brown plant hopper (Nilaparvata lugens).
After the desired time the activity in % is determined. Here 100% means that all plant hoppers were killed; 0% means that no plant hoppers were killed.

Structure (SMILES) | activity after 7 days [%]
O=C1C=C(NCc2ccc(Cl)nc2)CCC1 [Compound 1] | 100

Each molecule was assayed on Lucilia cuprina larvae (assay: Fly larvae test). Conditions: 100 ppm.
Format: in vivo
Method: 10 mg active compound were dissolved in 0.5 ml dimethylsulphoxide. To prepare a suitable formulation the active compound solution is diluted with water to the respective desired concentration.
About 20 Lucilia cuprina larvae are placed in a test tube that contains ca. 1 cm^3 horse flesh and 0.5 ml of the active compound preparation under test.
After the desired time the death rate in % is determined. Here 100% means that all larvae were killed; 0% means that no larvae were killed.

Structure (SMILES) | death rate after 2 days [%]
CCN(Cc1ccc(Cl)nc1)C1=CC(=O)OC1 [Compound 85] | 100
CON(Cc1ccc(Cl)nc1)C1=CC(=O)OC1 [Compound 98] | 100
CN(Cc1ccc(Cl)nc1)C1=C(F)C(=O)OC1 [Compound 104] | 100
CN(Cc1ccc(Br)nc1)C1=CC(=O)OC1 [Compound 121] | 100
CN(Cc1ccc(C(F)(F)F)nc1)C1=CC(=O)OC1 [Compound 125] | 90
CN(Cc1ccc(Cl)nc1)C1=CC(=O)CC1 [Compound 175] | 100

The molecules below were run on adult engorged females of Boophilus microplus (strain Parkhurst-SP resistant) (assay: Test with resistant monoxenous cattle ticks/SP-resistant Parkhurst strain, injection method). Conditions: 20 μg/animal injected into the abdomen.
Format: in vivo
Method: 10 mg of the active compound are dissolved in 0.5 ml dimethylsulphoxide, lower concentrations are prepared by dilution with the same solvent.
The test is carried out five times. 1 μl is injected into the abdomen, the animals are transferred into dishes and stored in an air-conditioned room. The control of activity is carried out on a deposit of fertile eggs after 7 days. Eggs, the fertility of which was not visible externally, were stored in glass tubes in an incubator until larvae hatch after about 24 days. An activity of 100% means that no ticks laid fertile eggs.

Structure (SMILES) | activity (no fertile eggs laid) [%]
CN(Cc1ccc(Br)nc1)C1=CC(=O)OC1 [Compound 121] | 95
CN(Cc1ccc(C(F)(F)F)nc1)C1=CC(=O)OC1 [Compound 125] | 80
